Test results from patent US20220241249A1, “PHARMACEUTICAL COMPOSITION AND KIT CONTAINING NOVEL PENAM DERIVATIVE OR SALT THEREOF AND ONE OR MORE COMPOUNDS SELECTED FROM beta-LACTAMASE INHIBITORY COMPOUND AND ANTIBACTERIAL COMPOUND OR SALTS THEREOF” (priority 2019, published 2022).
Converted amounts (≈) assume the structure as drawn.

Key:
[1] = test system: AmpC-derepressed Pseudomonas aeruginosa mutant strain (S-3028); assay: Antibacterial activity evaluation test, MIC by broth microdilution (CLSI); type: cell-based; conditions: Pseudomonas aeruginosa
Procedure, shortened: (§1)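 Overnight Mueller Hinton agar cultures were suspended to 0.5 McFarland, diluted 10-fold and used to inoculate cation-adjusted Mueller Hinton broth containing test compound. Plates were incubated at 35° C. for 16 to 20 hours; MIC (μg/mL) was the lowest concentration without visible growth.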

[2] = test system: CTX-M-15-containing Escherichia coli strain (TK-1747); assay: as above; type: cell-based; conditions: Escherichia coli
Procedure, shortened: as §1

[3] = test system: GES-19 and GES-20-containing Pseudomonas aeruginosa strain (S-3759); assay: as above; type: cell-based; conditions: Pseudomonas aeruginosa
Procedure, shortened: as §1

[4] = test system: IMP-1-containing Pseudomonas aeruginosa strain (S-2838); assay: as above; type: cell-based; conditions: Pseudomonas aeruginosa
Procedure, shortened: as §1

[5] = test system: KPC-2-containing Klebsiella pneumoniae strain (Y-995); assay: as above; type: cell-based; conditions: Klebsiella pneumoniae
Procedure, shortened: as §1

[6] = test system: NDM-1-containing Klebsiella pneumoniae strain (Y-1007); assay: as above; type: cell-based; conditions: Klebsiella pneumoniae
Procedure, shortened: as §1

[7] = test system: OXA-48-containing Klebsiella pneumoniae strain (Y-1062); assay: as above; type: cell-based; conditions: Klebsiella pneumoniae
Procedure, shortened: as §1

[8] = test system: Pseudomonas aeruginosa strain ATCC27853; assay: as above; type: cell-based; conditions: Pseudomonas aeruginosa, ATCC27853
Procedure, shortened: as §1

[9] = test system: VIM-2-containing Pseudomonas aeruginosa strain (S-3779); assay: as above; type: cell-based; conditions: Pseudomonas aeruginosa
Procedure, shortened: as §1

[10] = test system: multidrug-resistant Pseudomonas aeruginosa strain (S-2838 strain); assay: Test for protection against systemic infection in mouse with multidrug-resistant Pseudomonas aeruginosa; type: in vivo; conditions: sc, 72 h, read-out: survival rate 3 days after the inoculation with bacteria
Protocol: As mice, ICR male SPF mice (4 weeks old: 10 mice per group) were used. Clinically isolated multidrug-resistant Pseudomonas aeruginosa strain (S-2838 strain) cultured overnight on a Mueller-Hinton agar plate at 37° C. was cultured on a cation-adjusted Mueller Hinton medium for 5 hours, and then diluted 20-fold with a 10% mucin/phosphate buffer, thereby preparing an inoculum. An infection was induced by intraperitoneally inoculating the mice with the inoculum at 0.5 mL (about 10^6 CFU/mouse). Each test compound was dissolved in physiological saline, and 1 hour after the infection, the compound was subcutaneously administered once to the mice at 40 mg/kg. The control group was administered with the same amount of physiological saline used as a vehicle. The number of surviving mice was recorded 3 days after the infection.
A test for protection against systemic infection in a mouse with multidrug-resistant Pseudomonas aeruginosa was performed in the same manner as in Test Example 2.

Structure (SMILES) | MIC [1] [µg/mL] | MIC [2] [µg/mL] | MIC [3] [µg/mL] | MIC [4] [µg/mL] | MIC [5] [µg/mL] | MIC [6] [µg/mL] | MIC [7] [µg/mL] | MIC [8] [µg/mL] | MIC [9] [µg/mL] | responders at 40 mg/kg [10] [%]
Nc1nc(/C(=N/OC2(C(=O)O)CCC2)C(=O)N[C@@H]2C(=O)N3C[C@@](C(=O)O)(N4CCN(NC(=O)C(=O)c5ccc(O)c(O)c5Cl)C4=O)S[C@H]23)cs1 [Example 19, (3R,5R,6R)-6-((Z)-2-(2-aminothiazol-4-yl)-2-((-1-carboxycyclobutoxy)imino)acetamido)-3-(3-(2-(2-chloro-3,4-dihydroxyphenyl)-2-oxoacetamido)-2-oxoimidazolidin-1-yl)-7-oxo-4-thia-1-azabicyclo[3.2.0]heptane-3-carboxylic acid] | 2 (≈ 2.66 µM) | 0.5 (≈ 0.664 µM) | 0.25 (≈ 0.332 µM) | 0.25 (≈ 0.332 µM) | 0.25 (≈ 0.332 µM) | < 0.06 | 0.12 (≈ 0.159 µM) | 0.25 (≈ 0.332 µM) | 0.25 (≈ 0.332 µM) | ≥ 90
CC(C)(O/N=C(\C(=O)N[C@@H]1C(=O)N2C[C@@](C(=O)O)(N3CCN(NC(=O)C(=O)c4ccc(O)c(O)c4Cl)C3=O)S[C@H]12)c1nsc(N)n1)C(=O)O [Example 23, (3R,5R,6R)-6-((Z)-2-(5-amino-1,2,4-thiadiazol-3-yl)-2-(((2-carboxypropan-2-yl)oxy)imino)acetamido)-3-(3-(2-(2-chloro-3,4-dihydroxyphenyl)-2-oxoacetamido)-2-oxoimidazolidin-1-yl)-7-oxo-4-thia-1-azabicyclo[3.2.0]heptane-3-carboxylic acid] | 0.5 (≈ 0.674 µM) | 0.25 (≈ 0.337 µM) | 1 (≈ 1.35 µM) | 1 (≈ 1.35 µM) | 0.25 (≈ 0.337 µM) | < 0.06 | 0.5 (≈ 0.674 µM) | 0.25 (≈ 0.337 µM) | 0.25 (≈ 0.337 µM) | ≥ 90
Nc1nc(/C(=N/OC2(C(=O)O)CC2)C(=O)N[C@@H]2C(=O)N3C[C@@](C(=O)O)(N4CCN(NC(=O)CCNC(=O)C(=O)c5ccc(O)c(O)c5Cl)C4=O)S[C@H]23)cs1 [Example 31, (3R,5R,6R)-6-((Z)-2-(2-aminothiazol-4-yl)-2-((1-carboxycyclopropoxy)imino)acetamido)-3-(3-(3-(2-(2-chloro-3,4-dihydroxyphenyl)-2-oxoacetamido)propanamido)-2-oxoimidazolidin-1-yl)-7-oxo-4-thia-1-azabicyclo[3.2.0]heptane-3-carboxylic acid] | < 0.06 | 1 (≈ 1.23 µM) | 0.5 (≈ 0.617 µM) | 1 (≈ 1.23 µM) | 0.12 (≈ 0.148 µM) | 0.12 (≈ 0.148 µM) | 1 (≈ 1.23 µM) | 0.25 (≈ 0.309 µM) | 0.25 (≈ 0.309 µM) | ≥ 90
CC(C)[C@H](O/N=C(\C(=O)NC1C(=O)N2C[C@@](C(=O)O)(N3CCN(NC(=O)C(=O)c4ccc(O)c(O)c4Cl)C3=O)S[C@H]12)c1csc(N)n1)C(=O)O (stereo partly drawn) [Example 114, (3R,5R,6R)-6-((Z)-2-(2-aminothiazol-4-yl)-2-(((S)-1-carboxy-2-methylpropoxy)imino)-acetamido)-3-(3-(2-(2-chloro-3,4-dihydroxy-phenyl)-2-oxoaceta-mido)-2-oxoimidazol-idin-1-yl)-7-oxo-4-thia-1-azabicyclo[3.2.0]-heptane-3-carboxylic acid] | 1 (≈ 1.32 µM) | 0.25 (≈ 0.331 µM) | 2 (≈ 2.65 µM) | 4 (≈ 5.3 µM) | 0.25 (≈ 0.331 µM) | < 0.06 | 0.25 (≈ 0.331 µM) | 2 (≈ 2.65 µM) | 1 (≈ 1.32 µM) | ≥ 90
